# Read-outs that look alike come from different tables or passages of the source. Residues, ends and D or L forms follow the SMILES beside them. *: point of attachment. αGalNAc = CC(=O)N[C@@H]1[C@@H](O)[C@@H](O)[C@@H](CO)O[C@@H]1*; X2 = c1ccc2nc(C*)ccc2c1; X1 = c1csc(C*)c1
# Assays:
# [1] = molecular target: T1, GalNAc-T2 (Homo sapiens, UniProt Q10471); experiment: Radiometric GalNAc-T2 inhibition assay with labeled UDP-GalNAc donor and MUC1a acceptor peptide; assay type: biochemical; details: for Relative inhibitory activity against GalNAc-T2: normalized concentration of 500 μM
# T1 construct: made in house; host or cells: Pichia pastoris
# T1 sequence (Q10471 whole entry): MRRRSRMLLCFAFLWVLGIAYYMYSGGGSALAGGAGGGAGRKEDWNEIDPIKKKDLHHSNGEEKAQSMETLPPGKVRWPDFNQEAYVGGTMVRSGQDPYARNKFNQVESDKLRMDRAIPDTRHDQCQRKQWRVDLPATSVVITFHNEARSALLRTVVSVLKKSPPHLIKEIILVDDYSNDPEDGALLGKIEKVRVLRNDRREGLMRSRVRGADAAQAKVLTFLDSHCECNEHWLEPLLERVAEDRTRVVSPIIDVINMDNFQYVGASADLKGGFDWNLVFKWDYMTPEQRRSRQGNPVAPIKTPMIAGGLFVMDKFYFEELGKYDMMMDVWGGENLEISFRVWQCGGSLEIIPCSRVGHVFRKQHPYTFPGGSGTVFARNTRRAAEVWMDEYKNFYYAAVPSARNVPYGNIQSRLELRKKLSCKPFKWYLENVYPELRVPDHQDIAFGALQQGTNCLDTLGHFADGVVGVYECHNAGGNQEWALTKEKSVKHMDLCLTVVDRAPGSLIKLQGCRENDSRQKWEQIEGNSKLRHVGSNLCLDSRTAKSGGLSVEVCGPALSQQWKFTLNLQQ
# Method: The glycosylation products were isolated from the radiolabeled donors through chromatographic techniques and analyzed by scintillation counting.
# (§1) 347 4. BIOCHEMICAL STUDIES
# (§2) 348 4.1. Reagents and substrates
# (§3) 349 Stock solutions of inhibitor (5mM) and MUC1a substrate (4mM) were prepared from
# (§4) 350 lyophilized powders. Additional serial dilutions of inhibitor were prepared of 1 mM, 200 µM, 50
# (§5) 351 µM, 10 µM, and 2 µM and the MUC1a substrate of 62.5 µM. Fully N-acetylated UDP-
# (§6) 352 [ 3H]GalNAc was obtained from American Radiolabeled Chemicals Inc (St. Louis, MO) whereas
# (§7) 353 nonlabelled UDP-GalNAc was obtained from Millipore-Sigma (St. Louis, MO). A 0.2 mM stock
# (§8) 354 solution of radiolabeled UDP-GalNAc was prepared by adding UDP-[ 3H]GalNAc to unlabeled
# (§9) 355 UDP-GalNAc to give ~6 x 10^8 DPM/µmole. ScintiVerse BD Cocktail fluid was obtained from
# (§10) 356 Fisher Scientific (Pittsburgh, PA). Liquid scintillation counting was performed on a Beckman
# (§11) 357 LS 6500 Scintillation Counter. BioPureSPN TARGA C18 macro spin columns were obtained
# (§12) 358 from The Nest Group Inc. (Ipswich, MA).
# (§13) 360 4.2. GalNAc-Ts expression
# (§14) 361 Human GalNAc-T1 was a gift of Kelley Moremen (CCRC, University of Georgia) and
# (§15) 362 expressed in HEK293F cells. Human GalNAc-T2, and -T3 were obtained from Ramon
# 363 Hertado-Guerrero (University of Zaragosa, SP) and expressed in Pichia pastoris.
# 366 The glycomimetic inhibitors were optimized using GalNAc-T2 activity assays as previously
# 367 described. The reactions were carried out in a total volume of 50 µl, containing 100 nM
# 369 cpm/nm) as the sugar donor. The designed glycomimetics were tested at a range of
# 371 conducted in 25 mM cacodylate buffer (pH 7.4) with 10 mM MnCl 2 and 0.25% Triton X-100,
# 372 and incubated at 22°C for 30 minutes. Excess UDP-[ 14C]GalNAc was removed from the
# 373 glycosylated peptide using DOWEX 1 chromatography, the product was subsequently
# 374 analyzed through scintillation counting.
# 377 protocol was used except UDP-[ 3H]GalNAc was utilized and the products isolated on Targa
# 378 C18 spin columns as previously described. Final enzyme concentrations were 100 nM for
# 379 GalNAc-T1 and -T3 and 200 nM for GalNAc-T2 while final MUC1a substrate and inhibitor 5
# 380 concentrations were as above. Reactions were incubated at 22°C for 30min for GalNAc-T1
# 381 and -T3 and 3h for GalNAc-T2. After incubation, reactions were quenched with 200µL of 0.5%
# 382 TFA in H 2O and passed through the spin columns. Columns were extensively washed with
# 383 0.1% TFA/H 2O and glycopeptide products eluted with 0.1% TFA in 50/50 acetonitrile/H2O
# 384 followed by 100% acetonitrile. The different eluates were analyzed by scintillation counting on
# 385 a Beckman LS 6500 Scintillation Counter. Relative percent peptide glycosylation was
# 386 calculated from the obtained 3H DPM as described in Ballard et al 2023. Reactions were
# 387 repeated twice for each transferase. After subtracting the no substrate blank, under these
# 390 Percent activity was plotted against the log concentration of inhibitor 19 in µM. […]
# [2] = molecular target: T2, GalNAc-T3 (Homo sapiens, UniProt Q14435); experiment: Radiometric GalNAc-T3 inhibition assay with UDP-[3H]GalNAc and MUC1a acceptor peptide; assay type: biochemical
# T2 construct: made in house; host or cells: Pichia pastoris
# T2 sequence (Q14435 1-633): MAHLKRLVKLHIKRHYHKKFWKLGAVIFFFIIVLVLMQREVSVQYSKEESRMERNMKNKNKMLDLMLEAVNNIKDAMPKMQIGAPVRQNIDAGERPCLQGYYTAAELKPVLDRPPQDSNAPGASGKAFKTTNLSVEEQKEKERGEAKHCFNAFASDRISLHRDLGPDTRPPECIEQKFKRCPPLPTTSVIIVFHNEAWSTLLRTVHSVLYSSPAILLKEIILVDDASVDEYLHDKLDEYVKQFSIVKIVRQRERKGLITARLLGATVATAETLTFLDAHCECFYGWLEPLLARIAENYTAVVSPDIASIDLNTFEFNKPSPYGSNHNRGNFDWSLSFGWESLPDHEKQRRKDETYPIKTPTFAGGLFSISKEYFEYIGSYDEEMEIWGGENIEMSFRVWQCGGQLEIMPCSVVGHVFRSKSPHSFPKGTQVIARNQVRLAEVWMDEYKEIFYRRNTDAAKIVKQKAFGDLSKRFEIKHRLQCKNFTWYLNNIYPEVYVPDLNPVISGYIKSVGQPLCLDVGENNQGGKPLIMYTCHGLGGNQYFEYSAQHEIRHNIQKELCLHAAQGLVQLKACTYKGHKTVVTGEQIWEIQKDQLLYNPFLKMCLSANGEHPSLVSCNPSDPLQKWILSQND
# Method: as §1, §2, §3, §4, §5, §6, §7, §8, §9, §10, §11, §12, §13, §14, §15
# (§16) 363 Hertado-Guerrero (University of Zaragosa, SP) and expressed in Pichia pastoris. […]
# (§17) 384 followed by 100% acetonitrile. The different eluates were analyzed by scintillation counting on […]
# (§18) 386 calculated from the obtained 3H DPM as described in Ballard et al 2023. […]
# [3] = molecular target: T3, GalNAc-T1 (Homo sapiens, UniProt Q10472); experiment: Radiometric GalNAc-T1 inhibition assay with UDP-[3H]GalNAc and MUC1a acceptor peptide; assay type: biochemical
# T3 construct: made in house; host or cells: HEK293F cells (gift of Kelley Moremen, CCRC, University of Georgia)
# T3 sequence (Q10472 1-559): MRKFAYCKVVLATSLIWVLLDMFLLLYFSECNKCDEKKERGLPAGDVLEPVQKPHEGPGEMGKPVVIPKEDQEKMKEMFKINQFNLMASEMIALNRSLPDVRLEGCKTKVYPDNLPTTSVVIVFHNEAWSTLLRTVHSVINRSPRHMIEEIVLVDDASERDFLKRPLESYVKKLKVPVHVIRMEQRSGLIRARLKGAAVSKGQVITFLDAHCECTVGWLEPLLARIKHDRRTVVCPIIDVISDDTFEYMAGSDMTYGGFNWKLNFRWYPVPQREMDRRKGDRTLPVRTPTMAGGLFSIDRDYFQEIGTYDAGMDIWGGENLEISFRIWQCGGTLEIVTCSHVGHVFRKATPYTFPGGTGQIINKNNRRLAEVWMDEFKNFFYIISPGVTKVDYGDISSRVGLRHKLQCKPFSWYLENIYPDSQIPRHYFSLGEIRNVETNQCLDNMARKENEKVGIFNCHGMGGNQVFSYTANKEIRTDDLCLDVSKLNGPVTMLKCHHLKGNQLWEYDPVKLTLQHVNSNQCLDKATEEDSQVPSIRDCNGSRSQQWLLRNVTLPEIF
# Method: as §1, §2, §3, §4, §5, §6, §7, §8, §9, §10, §11, §12, §13, §14, §15, §16
# 367 described. […]
# as §17, §18
# [4] = tested on: GalNAc-T3; design: method as in PMID 28362263; details: cited from earlier work
# [5] = tested on: GalNAc-T6; design: method as in PMID 28362263; details: cited from earlier work
# [6] = tested on: GalNAc-T2; design: method as in PMID 28362263; details: cited from earlier work
# [7] = tested on: FGF23 levels; design: method as in PMID 28362263; details: chronic kidney disease treatment; cited from earlier work
# [8] = tested on: GalNAc-T2; design: method as in Wandall H. H. et al., [16]; details: ref Wandall H. H. et al., [16], cited from earlier work
# [9] = tested on: GalNAc-T1; design: method as in Wandall H. H. et al., [16]; details: ref Wandall H. H. et al., [16], cited from earlier work
# [10] = tested on: GalNAc-T3; design: method as in Wandall H. H. et al., [16]; details: ref Wandall H. H. et al., [16], cited from earlier work
# [11] = tested on: GalNAc-T2; design: method as in PMID 29061849; details: read-out: IC50 against GalNAc-T2; cited from earlier work
# [12] = calculated from IC50 by Cheng & Prusoff equation, MUC1a and UDP-GalNAc substrates
compound,measurement,setting,value
CC(=O)N[C@H]1[C@@H](O[C@H](C)[C@H](NC(=O)[C@H](C)NC(=O)[C@H](C)NC(=O)[C@H](C)NC(=O)[C@H](C)NC(=O)[C@@H]2CCCN2C(=O)[C@@H](NC(=O)[C@@H]2CCCN2C(=O)[C@H](CSCc2ccc3ccccc3n2)NC(=O)[C@@H]2CCCN2C(=O)[C@H](C)NC(=O)[C@H](C)NC(=O)CN)C(C)C)C(=O)N[C@@H](C)C(=O)N[C@@H](C)C(N)=O)O[C@H](CO)[C@H](O)[C@@H]1O [Compound 2] (H-GAAPC(X2)PVPAAAAT(αGalNAc)AA-NH2),IC50,[1],396 ± 172 µM
CC(=O)N[C@H]1[C@@H](O[C@H](C)[C@H](NC(=O)[C@H](C)NC(=O)[C@H](C)NC(=O)[C@H](C)NC(=O)[C@H](C)NC(=O)[C@@H]2CCCN2C(=O)[C@@H](NC(=O)[C@@H]2CCCN2C(=O)[C@H](CSCc2cccs2)NC(=O)[C@@H]2CCCN2C(=O)[C@H](C)NC(=O)[C@H](C)NC(=O)CN)C(C)C)C(=O)N[C@@H](C)C(=O)N[C@@H](C)C(N)=O)O[C@H](CO)[C@H](O)[C@@H]1O [Compound 3] (H-GAAPC(X1)PVPAAAAT(αGalNAc)AA-NH2),IC50,[1],84.5 ± 25.9 µM
"OCc1cccs1 [Compound 5, 2-thiophenemethanol]",Relative inhibitory activity against GalNAc-T2,[1]; MUC1a as acceptor substrate,unable to inhibit the enzyme
N[C@@H](CSCc1cccs1)C(=O)O [Compound 16],Relative inhibitory activity against GalNAc-T2,[1]; MUC1a as acceptor substrate,unable to inhibit the enzyme
CC(=O)N[C@H]1[C@@H](O[C@H](C)[C@H](NC(=O)[C@H](C)NC(=O)[C@H](C)NC(=O)[C@H](C)NC(=O)[C@H](C)NC(=O)[C@@H]2CCCN2C(=O)[C@H](Cc2c[nH]c3ccccc23)NC(=O)[C@@H]2CCCN2C(=O)[C@H](CSCc2cccs2)NC(=O)[C@@H]2CCCN2)C(=O)N[C@@H](C)C(=O)N[C@@H](C)C(N)=O)O[C@H](CO)[C@H](O)[C@@H]1O [Compound 18] (H-PC(X1)PWPAAAAT(αGalNAc)AA-NH2),IC50,"[1]; MUC1a as acceptor substrate, read-out: IC50 against GalNAc-T2",55.7 ± 31.5 µM
CC(=O)N[C@H]1[C@@H](O[C@H](C)[C@H](NC(=O)[C@H](C)NC(=O)[C@H](C)NC(=O)[C@@H](NC(=O)[C@H](CC(C)C)NC(=O)[C@@H]2CCCN2C(=O)[C@H](CC(C)C)NC(=O)[C@@H]2CCCN2C(=O)[C@H](CSCc2cccs2)NC(=O)[C@@H]2CCCN2)C(C)C)C(=O)N[C@@H](C)C(=O)N[C@@H](C)C(N)=O)O[C@H](CO)[C@H](O)[C@@H]1O [Compound 19] (H-PC(X1)PLPLVAAT(αGalNAc)AA-NH2),IC50,[1],21.4 ± 4.1 µM
same,IC50,"[2]; MUC1a as acceptor substrate, read-out: IC50 against GalNAc-T3",171 ± 62.2 µM
same,Ki,[2]; [12],154 µM
same,IC50,"[3]; MUC1a as acceptor substrate, read-out: IC50 against GalNAc-T1",678 ± 197 µM
same,Ki,[3]; [12],668 µM
O=C(Nc1ccc(Nc2ccncc2)cc1)c1ccc(Nc2ccnc3ccc([N+](=O)[O-])cc23)cc1 [T3Inh-1],Activity against GalNAc-T3,[4],can act against GalNAc-T3
same,Activity against T6 variant,[5],no activity
same,Activity against T2 variant,[6],no activity
same,FGF23 levels in mice,[7],lower the FGF23 levels
"CC(=O)N[C@H]1[C@@H](OP(=O)(O)OP(=O)(O)OC[C@H]2O[C@@H](n3ccc(=O)[nH]c3=O)[C@H](O)[C@@H]2O)O[C@H](CO)[C@H](O)[C@@H]1O [UDP-GalNAc, uridine diphosphate-GalNAc]",Km,[8]; read-out: Km(UDP-GalNAc) GalNAc-T2,10 µM
same,Km,[9]; read-out: Km(UDP-GalNAc) GalNAc-T1,62 µM
same,Km,[10]; read-out: Km(UDP-GalNAc) GalNAc-T3,29 µM
O=c1cc(-c2ccc(O)c(O)c2)oc2cc(O)cc(O)c12 [luteolin],IC50,[11],14.7 µM
MUC1a: model peptide acceptor substrate with sequence AHGVTSAPDTR,Km,[8]; read-out: Km(MUC1a) GalNAc-T2,2130 µM
same,Km,[9]; read-out: Km(MUC1a) GalNAc-T1,660 µM
same,Km,[10]; read-out: Km(MUC1a) GalNAc-T3,90 µM
thiophene [Compound 15],Relative inhibitory activity against GalNAc-T2,[1]; MUC1a as acceptor substrate,unable to inhibit the enzyme
